From patent US9512091B2, “Compositions and methods for the modulation of specific amidases for N-acylethanolamines for use in the therapy of inflammatory diseases” (Epitech Group S.r.l., priority 2012, dated 2016)

What was measured:
[1] = target: T1, NAAA (N-Acylethanolamine Hydrolizing Acid Amidase) (Homo sapiens, UniProt Q02083); assay: Activity on the NAAA enzyme, membranes of HEK-NAAA cells, [14C]PEA hydrolysis; type: biochemical; settings: HEK-NAAA membranes 50 μg/sample, [14C]PEA 20 μM, 30 min at 37° C.; mean of 10 experiments; read-out: Inhibition of NAAA IC50 (after 30 min incubation)
T1 construct: expressed in transfected cells; host or cells: HEK cells permanently transfected with NAAA (HEK-NAAA); 12000 g membrane fraction
T1 sequence (Q02083 29-359): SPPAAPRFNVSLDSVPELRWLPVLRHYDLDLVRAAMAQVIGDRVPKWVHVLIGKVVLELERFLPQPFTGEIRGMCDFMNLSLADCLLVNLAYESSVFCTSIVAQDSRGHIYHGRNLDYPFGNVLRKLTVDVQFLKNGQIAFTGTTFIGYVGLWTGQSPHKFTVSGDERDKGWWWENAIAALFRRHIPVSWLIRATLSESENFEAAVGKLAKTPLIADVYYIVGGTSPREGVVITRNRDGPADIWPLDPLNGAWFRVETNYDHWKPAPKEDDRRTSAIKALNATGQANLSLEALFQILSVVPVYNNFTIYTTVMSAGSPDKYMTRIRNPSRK
Procedure: The effect of the samples being analysed on the enzymatic activity of the NAAA (N-Acylethanolamine Hydrolizing Acid Amidase) was determined on suitably permanently transfected cellular lines (HEK-NAAA). The cells were homogenised using TRIS-HCl 20 Mm (pH 7.4) by means of dounce. Subsequently a mild centrifugation (10 min, 800 g, 4° C.) was carried out for removing the cellular debris. The cellular fraction containing the membranes was obtained by means of subsequent centrifugation (30 min, 12000 g, 4° C.). The membranes (50 μg/sample) were incubated for 30 min at 37° C. with [^14C]PEA (20 μM; 10000 cpm/sample; 5 nCi/nmols) in presence and in absence of the substances to be tested. The incubation was blocked by adding 2 volumes of CHCl3/CH3OH (1:1/v:v). The radioactivity associated to the aqueous phase containing [^14C]Ethanolamine (produced by the hydrolysis of the radioactive substrate) was determined by means of β-Counter (Beckman Counter, LS6500 Scintillation Counters, Milan).

[2] = Solubility of the prepared product; type: physicochemical; settings: for solubility / Solubility in ethanol: ethanol; for solubility: organic solvent or mixture
[3] = test system: edema of the legs induced by sub-plantar carrageenan; assay: Carrageenan edema of the legs, plantar volume by plethysmometer; type: in vivo, rat; settings: for increase of plantar volume in percentage with respect to carrageenan alone (carrageenan=100): rat, PEA 33 μM/Kg, PEA-OXA (30 mg/Kg) μM/Kg, 5 experiments
Procedure: The experimental model of edema of the legs is induced through sub-plantar injection of a carrageenan solution (containing 50 μl of sterile saline solution and 1% of carrageenan) in the right leg of the animal (rat).
At specific time intervals the plantar volume is measured by means of a plethysmometer (Ugo Basile, Milan, Italy). The increase of the plantar volume is evaluated as the difference between the value obtained in the specific time intervals and the volume at the basal (time 0) measured immediately before the administration of carrageenan.
The data obtained from 5 different experiments, each involving 10 animals per group, were tabled (tab 2) in percentage with respect to the animals treated with carrageenan alone (carrageenan=100): […]

[4] = test system: hepatic esterases; settings: prior-art statement on poor selectivity; cited from earlier work

SMILES	IC50 [1] [µM]	solubility [2] [µg/mL]	Solubility in water [2]	also measured
O=C(CCc1ccccc1)N[C@H]1COC1=O [(S)-N-(2-oxo-3-oxetanyl)-3-phenylpropionamide, reference compound]	0.42	–	–	–
CCCCCCCCCCCCCCCC1=NC(C)(C)CO1 [Example 5, 2-pentadecyl-4,4-dimethyl-2-oxazoline]	–	> 10000	poorly soluble	–
CCCCCCCCCCCCCCCC1=NC(CO)(CO)CO1 [Example 6, 2-pentadecyl-4,4-bis(hydroxymethyl)-2-oxazoline]	–	> 10000	poorly soluble	–
CCCCCCCCCCCCCCC1=NCCO1 [Example 7, 2-tetradecyl-2-oxazoline]	–	> 10000	poorly soluble	melting point: 41 to 44 °C
CCCCCCCCCCCCCCCCC1=NCCO1 [Example 8, 2-hexadecyl-2-oxazoline]	–	> 10000	poorly soluble	melting point: 49 to 51 °C
CCCCCCCCCCCCCCCC1=NC[C@@H](C)O1 [Example 9, 2-pentadecyl-5(R)-methyl-2-oxazoline]	–	> 10000	poorly soluble	–
CCCCCCCCCCCCCCCC1=NC[C@H](C)O1 [Example 10, 2-pentadecyl-5(S)-methyl-2-oxazoline]	–	> 10000	poorly soluble	–
CCCCCCCCCCCCCCCC1=N[C@H](C)CO1 [Example 11, 2-pentadecyl-4(R)-methyl-2-oxazoline]	–	> 10000	poorly soluble	–
CCCCCCCCCCCCCCCC1=N[C@@H](C)CO1 [Example 12, 2-pentadecyl-4(S)-methyl-2-oxazoline]	–	> 10000	poorly soluble	–
CCCCCCCCCCCCCCCC1=NC(CO)CO1 (centres unmarked) [Example 13, 2-pentadecyl-4-hydroxymethyl-2-oxazoline]	–	> 10000	poorly soluble	–
CCCCCCCCCCCCCCCC1=NC(C(=O)OC)CO1 (centres unmarked) [Example 14, 2-pentadecyl-4-methyloxycarbonyl-2-oxazoline]	–	> 10000	poorly soluble	–
CCCCCCCCCCCCCCCC1=NC(C(=O)O)CO1 (centres unmarked) [Example 14b, 2-pentadecyl-4-carboxy-2-oxazoline]	–	> 10000	poorly soluble	–
CCCCCCCCCCCCCCCC1=NCCCO1 [Example 15, 2-pentadecyl-2-oxazine]	–	–	poorly soluble	Solubility in ethanol [2]: > 10000 µg/mL
CCCCCCCCCCCCCCCC1=NCCS1 [Example 16, 2-pentadecyl-2-thiazoline]	–	> 10000	poorly soluble	–
CCCCCCCCCCCCCC(=O)NCCO [MEA, Myristoyl ethanolamide, reference compound]	> 50	–	–	–
CCCCCCCCCCCCCC1=NCCO1 [MEA-OXA, 2-tridecyl-2-oxazoline]	41.5 ± 0.032	> 10000	poorly soluble	–
CCCCCCCC/C=C\CCCCCCCC(=O)NCCO [OEA, Oleoylethanolamine, reference compound]	> 50	–	–	–
CCCCCCCCC=CCCCCCCCC1=NCCO1 [OEA-OXA, 2-(8-heptadecenyl)-2-oxazoline]	38.4 ± 0.034	> 10000	poorly soluble	–
CCCCCCCCCCCCCCCC(=O)NCCO [PEA, Palmitoylethanolamide, reference compound]	> 50	–	–	increase of plantar volume in percentage with respect to carrageenan alone (carrageenan=100) ([3]; 30 min): 89.2 ± 2.2%; increase of plantar volume in percentage with respect to carrageenan alone (carrageenan=100) ([3]; 1 hr): 82 ± 1.8%; increase of plantar volume in percentage with respect to carrageenan alone (carrageenan=100) ([3]; 2 hrs): 78.3 ± 1.6%; increase of plantar volume in percentage with respect to carrageenan alone (carrageenan=100) ([3]; 3 hrs): 73.9 ± 2.1%; increase of plantar volume in percentage with respect to carrageenan alone (carrageenan=100) ([3]; 4 hrs): 70.1 ± 1.9%; increase of plantar volume in percentage with respect to carrageenan alone (carrageenan=100) ([3]; 5 hrs): 54.5 ± 0.63%; increase of plantar volume in percentage with respect to carrageenan alone (carrageenan=100) ([3]; 6 hrs): 32.9 ± 0.41%
CCCCCCCCCCCCCCCC1=NCCO1 [PEA-OXA, 2-pentadecyl-2-oxazoline]	24.2 ± 0.018	> 10000	poorly soluble	increase of plantar volume in percentage with respect to carrageenan alone (carrageenan=100) ([3]; 30 min): 88.2 ± 2.0%; increase of plantar volume in percentage with respect to carrageenan alone (carrageenan=100) ([3]; 1 hr): 81.2 ± 2.1%; increase of plantar volume in percentage with respect to carrageenan alone (carrageenan=100) ([3]; 2 hrs): 66.6 ± 0.78%; increase of plantar volume in percentage with respect to carrageenan alone (carrageenan=100) ([3]; 3 hrs): 59.6 ± 0.62%; increase of plantar volume in percentage with respect to carrageenan alone (carrageenan=100) ([3]; 4 hrs): 51.4 ± 0.58%; increase of plantar volume in percentage with respect to carrageenan alone (carrageenan=100) ([3]; 5 hrs): 43.0 ± 0.42%; increase of plantar volume in percentage with respect to carrageenan alone (carrageenan=100) ([3]; 6 hrs): 31.2 ± 0.22%; anti-inflammatory activity with respect to PEA ([3]; rat carrageenan edema, especially between 2 and 5 hours from carrageenan): greater anti-inflammatory activity
CCCCCCCCCCCCCCCC1=NCCO1 [PEA-OXLE]	32.1 ± 0.031	–	poorly soluble	Solubility in ethanol [2]: > 10000 µg/mL
CCCCCCCCCCCCCCCCCC(=O)NCCO [SEA, Stearylethanolamide, reference compound]	> 50	–	–	–
CCCCCCCCCCCCCCCCCC1=NCCO1 [SEA-OXA, 2-heptadecyl-2-oxazoline]	35 ± 0.021	> 10000	poorly soluble	melting point: 51 to 53 °C
NC(=O)c1cccc(-c2cccc(OC(=O)NC3CCCCC3)c2)c1 [URB597, cyclohexyl carbamic acid 3′-carbamoyl-biphenyl-3-yl ester]	–	–	–	inhibition of hepatic esterases [4]: more than 40%
